Patent publication US10844032B2, “Substituted benzofuran, benzothiophene and indole Mcl-1 inhibitors” (Vanderbilt University, priority 2012, dated 2020)

Target: recombinant Mcl-1 (residues 172-327) (Homo sapiens (Human), UniProt Q07820)
Test: Bak peptide fluorescence polarization anisotropy competition assay, Mcl-1
Format: binding
Conditions: Table 2, Ki range; FITC-Bak peptide 10 nM, Mcl-1 14 nM; read-out: Ki for inhibition of Mcl-1

Sequence of recombinant Mcl-1 (residues 172-327) (Q07820 172-327): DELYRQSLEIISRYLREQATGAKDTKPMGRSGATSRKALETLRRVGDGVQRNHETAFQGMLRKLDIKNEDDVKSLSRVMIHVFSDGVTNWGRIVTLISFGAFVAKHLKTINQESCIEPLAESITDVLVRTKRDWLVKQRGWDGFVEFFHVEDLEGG

Structure (SMILES)	Ki [nM]
COc1ccncc1-c1cccc2c(CCCOc3cc(C)c(Cl)c(C)c3)c(C(=O)NS(=O)(=O)c3ccccc3)[nH]c12 [Example 90, 3-(3-(4-chloro-3,5-dimethylphenoxy)propyl)-7-(4-methoxypyridin-3-yl)-N-(phenylsulfonyl)-1H-indole-2-carboxamide]	≤ 100
Cc1cc(OCCCc2c(C(=O)NS(C)(=O)=O)[nH]c3cccc(Br)c23)cc(C)c1Cl [Example 113, 4-bromo-3-(3-(4-chloro-3,5-dimethylphenoxy)propyl)-N-(methylsulfonyl)-1H-indole-2-carboxamide]	≤ 100

Same assay, conditions: read-out: Ki for inhibition of Mcl-1

Structure (SMILES)	Ki [nM]
Cc1cc(OCCCc2c(C(=O)NS(=O)(=O)CCCN3C(=O)c4ccccc4C3=O)[nH]c3cc(Cl)ccc23)cc(C)c1Cl [Example 256, 6-chloro-3-(3-(4-chloro-3,5-dimethylphenoxy)propyl)-N-((3-(1,3-dioxoisoindolin-2-yl)propyl)sulfonyl)-1H-indole-2-carboxamide]	501 to 999
Cc1cc(OCCCc2c(C(=O)NS(=O)(=O)CCNC(=O)c3cn[nH]c3)[nH]c3ccccc23)cc(C)c1Cl [Example 182, N-((2-(1H-pyrazole-4-carboxamido)ethyl)sulfonyl)-3-(3-(4-chloro-3,5-dimethylphenoxy)propyl)-1H-indole-2-carboxamide]	1000 to 9990
Cc1cc(OCCCc2c(C(=O)NS(=O)(=O)CCNC(=O)c3cccc(Oc4ccccc4)c3)[nH]c3ccccc23)cc(C)c1Cl [Example 167, 3-(3-(4-chloro-3,5-dimethylphenoxy)propyl)-N-((2-(3-phenoxybenzamido)ethyl)sulfonyl)-1H-indole-2-carboxamide]	101 to 299
Cc1cc(OCCCc2c(C(=O)NS(=O)(=O)C3CCN(C(=O)CCc4ccccc4)CC3)[nH]c3cc(Cl)ccc23)cc(C)c1Cl [Example 310, 6-chloro-3-(3-(4-chloro-3,5-dimethylphenoxy)propyl)-N-((1-(3-phenylpropanoyl)piperidin-4-yl)sulfonyl)-1H-indole-2-carboxamide]	101 to 299
CS(=O)(=O)NC(=O)c1[nH]c2ccccc2c1CCCOc1ccccc1 [Example 30, N-(methylsulfonyl)-3-(3-phenoxypropyl)-1H-indole-2-carboxamide]	10000 to 50000
Cc1cc(OCCCc2c(C(=O)NS(C)(=O)=O)[nH]c3ccccc23)ccc1Cl [Example 20, 3-(3-(4-chloro-3-methylphenoxy)propyl)-N-(methylsulfonyl)-1H-indole-2-carboxamide]	301 to 500
Cc1cc(OCCCc2c(C(=O)NS(C)(=O)=O)[nH]c3cc(Cl)ccc23)ccc1Cl [Example 53, 6-chloro-3-(3-(4-chloro-3-methylphenoxy)propyl)-N-(methylsulfonyl)-1H-indole-2-carboxamide]	301 to 500
CS(=O)(=O)NC(=O)c1[nH]c2cccc(Cl)c2c1CCCOc1cccc2ccccc12 [Example 49, 4-chloro-N-(methylsulfonyl)-3-(3-(naphthalen-1-yloxy)propyl)-1H-indole-2-carboxamide]	101 to 299
Cc1cc(OCCCc2c(C(=O)NS(=O)(=O)CCNC(=O)c3cccn3Cc3ccccc3)n(Cc3ccccc3)c3cc(Cl)ccc23)cc(C)c1Cl [Example 278, 1-benzyl-N-((2-(1-benzyl-1H-pyrrole-2-carboxamido)ethyl)sulfonyl)-6-chloro-3-(3-(4-chloro-3,5-dimethylphenoxy)propyl)-1H-indole-2-carboxamide]	101 to 299
Cc1cc(OCCCc2c(C(=O)NS(=O)(=O)c3cccc(Br)c3)[nH]c3cc(Cl)ccc23)cc(C)c1Cl [Example 218, N-((3-bromophenyl)sulfonyl)-6-chloro-3-(3-(4-chloro-3,5-dimethylphenoxy)propyl)-1H-indole-2-carboxamide]	101 to 299
Cc1cc(C(=O)NCCS(=O)(=O)NC(=O)c2[nH]c3ccccc3c2CCCOc2cc(C)c(Cl)c(C)c2)c(C)o1 [Example 159, 3-(3-(4-chloro-3,5-dimethylphenoxy)propyl)-N-((2-(2,5-dimethylfuran-3-carboxamido)ethyl)sulfonyl)-1H-indole-2-carboxamide]	101 to 299
CS(=O)(=O)NC(=O)c1[nH]c2cc(C(F)(F)F)ccc2c1CCCOc1cccc2ccccc12 [Example 79, N-(methylsulfonyl)-3-(3-(naphthalen-1-yloxy)propyl)-6-(trifluoromethyl)-1H-indole-2-carboxamide]	301 to 500
Cc1cccc(Cn2cccc2C(=O)NCCS(=O)(=O)NC(=O)c2[nH]c3cc(Cl)ccc3c2CCCOc2cc(C)c(Cl)c(C)c2)c1 [Example 245, 6-chloro-3-(3-(4-chloro-3,5-dimethylphenoxy)propyl)-N-((2-(1-(3-methylbenzyl)-1H-pyrrole-2-carboxamido)ethyl)sulfonyl)-1H-indole-2-carboxamide]	101 to 299
O=C(CCc1ccccc1)NCCS(=O)(=O)NC(=O)c1[nH]c2cc(Cl)ccc2c1CCCOc1cccc2ccccc12 [Example 240, 6-chloro-3-(3-(naphthalen-1-yloxy)propyl)-N-((2-(3-phenylpropanamido)ethyl)sulfonyl)-1H-indole-2-carboxamide]	301 to 500
Cc1cc(OCCCc2c(C(=O)NS(=O)(=O)CCNC(=O)c3cc(C)n(C)c3C)[nH]c3ccccc23)cc(C)c1Cl [Example 192, 3-(3-(4-chloro-3,5-dimethylphenoxy)propyl)-N-((2-(1,2,5-trimethyl-1H-pyrrole-3-carboxamido)ethyl)sulfonyl)-1H-indole-2-carboxamide]	301 to 500
O=C(NCCS(=O)(=O)NC(=O)c1[nH]c2cc(Cl)ccc2c1CCCOc1cccc2ccccc12)c1ccc2cc[nH]c2c1 [Example 239, N-((2-(1H-indole-6-carboxamido)ethyl)sulfonyl)-6-chloro-3-(3-(naphthalen-1-yloxy)propyl)-1H-indole-2-carboxamide]	301 to 500
Cc1cc(OCCCc2c(C(=O)NS(=O)(=O)CCNC(=O)c3cccc(-c4ccccc4)c3)[nH]c3ccccc23)cc(C)c1Cl [Example 165, N-((2-([1,1′-biphenyl]-3-ylcarboxamido)ethyl)sulfonyl)-3-(3-(4-chloro-3,5-dimethylphenoxy)propyl)-1H-indole-2-carboxamide]	301 to 500
CS(=O)(=O)NC(=O)c1[nH]c2cccc(C(F)(F)F)c2c1CCCOc1cccc2ccccc12 [Example 81, N-(methylsulfonyl)-3-(3-(naphthalen-1-yloxy)propyl)-4-(trifluoromethyl)-1H-indole-2-carboxamide]	301 to 500
COc1ccccc1-c1cccc2c(CCCOc3cc(C)c(Cl)c(C)c3)c(C(=O)NS(C)(=O)=O)[nH]c12 [Example 85, 3-(3-(4-chloro-3,5-dimethylphenoxy)propyl)-7-(2-methoxyphenyl)-N-(methylsulfonyl)-1H-indole-2-carboxamide]	101 to 299
Cc1cc(OCCCc2c(C(=O)NS(=O)(=O)CCNC(=O)c3cc(C)n(Cc4ccncc4)c3C)[nH]c3ccccc23)cc(C)c1Cl [Example 195, 3-(3-(4-chloro-3,5-dimethylphenoxy)propyl)-N-((2-(2,5-dimethyl-1-(pyridin-4-ylmethyl)-1H-pyrrole-3-carboxamido)ethyl)sulfonyl)-1H-indole-2-carboxamide]	101 to 299
COc1ccc(OCCCc2c(C(=O)NS(C)(=O)=O)[nH]c3cc(Cl)ccc23)cc1 [Example 109, 6-chloro-3-(3-(4-methoxyphenoxy)propyl)-N-(methylsulfonyl)-1H-indole-2-carboxamide]	10000 to 50000
